Laboratory results: patent US20050209157A1, “Short bioactive peptides and methods for their use” (priority 2001, published 2005)

Experiments:
[1] = test system: Xanthomonas campestris pv. campestris (XC)
[2] = test system: Erwinia caratovora subsp. carotova (EC)
S. aureus = assay: Synergy of Shiva-1 and lysozyme, percent viability; format: cell-based, Staphylococcus aureus; settings: lysozyme 10×
Experimental: (§1) The percent viability of gram positive S. intermedius 19930, S. intermedius 20034, and S. aureus was determined relative to blank controls.

S. intermedius 19930 = assay: Synergy of Shiva-1 and lysozyme, percent viability; format: cell-based, Staphylococcus intermedius
Experimental: as §1

S. intermedius 20034 = assay: Synergy of Shiva-1 and lysozyme, percent viability; format: cell-based, Staphylococcus intermedius; settings: lysozyme 10×
Experimental: as §1

Pseudomonas aeruginosa = assay: Synergy of Shiva-1 and lysozyme, percent viability; format: cell-based
Experimental: The percent viability of Pseudomonas aeruginosa was determined relative to blank controls.

[3] = test system: Pseudomonas solanacearum (PS)
[4] = test system: Pseudomonas syringae pv. tabaci (PSPT)

Lysozyme
LD50 [1]: >0.027 (key: > indicates greater than 1000.)
LD50 [2]: >0.44 (key: > indicates greater than 1000.)
percent viability (S. aureus; peptide concentration 0.01 μM): 100%
percent viability (S. aureus; peptide concentration 0.1 μM): 100%
percent viability (S. aureus; peptide concentration 0.5 μM): 100%
percent viability (S. aureus; peptide concentration 1 μM): 51.0%
percent viability (S. aureus; peptide concentration 5 μM): 18.4%
percent viability (S. aureus; peptide concentration 10 μM): 13.3%
percent viability (S. aureus; peptide concentration 50 μM): 9.5%
percent viability (S. intermedius 19930; peptide concentration 0.01 μM, lysozyme at ten times the molar concentration (10×)): 100%
percent viability (S. intermedius 19930; peptide concentration 0.1 μM, lysozyme 10×): 100%
percent viability (S. intermedius 19930; peptide concentration 0.5 μM, lysozyme 10×): 81.3%
percent viability (S. intermedius 19930; peptide concentration 1 μM, lysozyme 10×): 53%
percent viability (S. intermedius 19930; peptide concentration 5 μM, lysozyme 10×): 49.5%
percent viability (S. intermedius 19930; peptide concentration 10 μM, lysozyme 10×): 34.4%
percent viability (S. intermedius 19930; peptide concentration 50 μM, lysozyme 10×): 22%
percent viability (S. intermedius 20034; peptide concentration 0.01 μM): 100%
percent viability (S. intermedius 20034; peptide concentration 0.5 μM): 59.0%
percent viability (S. intermedius 20034; peptide concentration 5 μM): 38.3%
percent viability (S. intermedius 20034; peptide concentration 50 μM): 10.0%
percent viability (Pseudomonas aeruginosa; peptide concentration 0.01 μM, lysozyme at same molar concentration (1×), relative to blank controls): 100%
percent viability (Pseudomonas aeruginosa; peptide concentration 0.1 μM, lysozyme 1×): 82.2%
percent viability (Pseudomonas aeruginosa; peptide concentration 1 μM, lysozyme 1×): 52.1%
percent viability (Pseudomonas aeruginosa; peptide concentration 5 μM, lysozyme 1×): 7.9%
percent viability (Pseudomonas aeruginosa; peptide concentration 25 μM, lysozyme 1×): 0.4%
LD50 [3]: >16.0 (key: > indicates greater than 1000.)
LD50 [4]: >0.19 (key: > indicates greater than 1000.)
